# Bridge positions count the residues as written; N and C are the ends. Square brackets hold non-standard residues; d marks the D form. Peptide text beside a SMILES is read from it. Hyp = O=C(O)[C@@H]1C[C@@H](O)CN1
# Assay: Physical stability of peptide analogues (Thioflavin T fibrillation)
# Type: physicochemical
# Details: maximum ThT signal normalized between hAMY maximum and buffer background; 40° C., shaking, four days; pH 7 per table title
# Method: General Protocols for Determination of Physical Stability of Peptide Analogues
# Peptides were dissolved in buffers (50 mM sodium acetate at pH 4 or 50 mM sodium phosphate at pH 7) and incubated for one hour. The samples were then divided into two replicates of 80 μl in a black 384 well plate (μ-clear, Greiner Bio-One) and mixed with Thioflavin T (ThT) to a final concentration of 4 μM. The plate was sealed and placed in a plate reader (CLARIOstar, BMG) where the temperature was set at 40° C. during the course of the experiment. The samples were further stressed by shaking the plate at 700 rpm (linear) for five minutes before every measurement. The fluorescence was measured every 10 min for four days by exciting the ThT at 450 nm and measuring the emission at 480 nm. For each peptide, the ThT signal over time was smoothened using Local Polynomial Regression fitting (LOESS) as implemented in the statistical programming environment R. For the smoothened data, the maximum ThT signal was normalized in percent between the maximum ThT signal for hAMY and the buffer background.
row,Max ThT signal (%),SMILES
1,5.200,CC[C@H](C)[C@H](NC(=O)[C@H](CCC(N)=O)NC(=O)[C@H](Cc1c[nH]cn1)NC(=O)[C@H](C)NC(=O)[C@H](CC(C)C)NC(=O)[C@H](CCCNC(=N)N)NC(=O)[C@H](CCC(N)=O)NC(=O)[C@@H](NC(=O)[C@@H](NC(=O)[C@@H]1CSSC[C@H](NC(=O)CN)C(=O)N[C@@H](CCCNC(=N)N)C(=O)N[C@@H]([C@@H](C)O)C(=O)NCC(=O)N[C@@H]([C@@H](C)O)C(=O)N1)[C@@H](C)O)C(C)C)C(=O)N[C@@H](Cc1ccc(O)cc1)C(=O)N[C@@H](CCC(N)=O)C(=O)N[C@@H](Cc1ccccc1)C(=O)N[C@H](C(=O)N[C@@H](CC(=O)O)C(=O)N[C@@H](CCCCN)C(=O)N[C@@H](Cc1ccccc1)C(=O)N[C@@H](CCCCN)C(=O)N[C@@H](CC(=O)O)C(=O)N[C@@H](CC(N)=O)C(=O)N[C@H](C(=O)N[C@@H](C)C(=O)N1CCC[C@H]1C(=O)N[C@@H](CCCNC(=N)N)C(=O)N[C@@H](CO)C(=O)N[C@@H](CCCCN)C(=O)N[C@H](C(=O)N[C@@H](CO)C(=O)N1CCC[C@H]1C(=O)N[C@@H](CCC(N)=O)C(=O)N[C@@H](Cc1ccccc1)C(=O)N1C[C@H](O)C[C@H]1C(N)=O)[C@@H](C)CC)C(C)C)[C@@H](C)O [compound 211] (H-GCRTGTCTVQRLAHQIYQFTDKFKDNVAPRSKISPQF[Hyp]-NH2; disulfide 2-7; N-terminus assumed)
2,2.600,CC[C@H](C)[C@H](NC(=O)[C@H](CCC(N)=O)NC(=O)[C@H](Cc1c[nH]cn1)NC(=O)[C@H](C)NC(=O)[C@H](CC(C)C)NC(=O)[C@H](CCCCN)NC(=O)[C@H](CCC(N)=O)NC(=O)[C@@H](NC(=O)[C@@H](NC(=O)[C@@H]1CSSC[C@H](NC(=O)CN)C(=O)N[C@@H](CCCNC(=N)N)C(=O)N[C@@H](Cc2ccccc2)C(=O)NCC(=O)N[C@@H]([C@@H](C)O)C(=O)N1)[C@@H](C)O)C(C)C)C(=O)N[C@@H](Cc1ccc(O)cc1)C(=O)N[C@@H](CCC(N)=O)C(=O)N[C@@H](Cc1ccccc1)C(=O)N[C@H](C(=O)N[C@@H](CC(=O)O)C(=O)N[C@@H](CCCCN)C(=O)N[C@@H](CC(=O)O)C(=O)N[C@@H](CCCCN)C(=O)N[C@@H](CC(=O)O)C(=O)N[C@@H](CC(N)=O)C(=O)N[C@H](C(=O)N[C@@H](C)C(=O)N1CCC[C@H]1C(=O)N[C@@H](CCCNC(=N)N)C(=O)N[C@@H](CO)C(=O)N[C@@H](CCCCN)C(=O)N[C@H](C(=O)N[C@@H](CO)C(=O)N1CCC[C@H]1C(=O)N[C@@H](CCC(N)=O)C(=O)NCC(=O)N[C@@H](Cc1ccc(O)cc1)C(N)=O)[C@@H](C)CC)C(C)C)[C@@H](C)O [compound 1]
3,1.600,CC[C@H](C)[C@H](NC(=O)[C@H](CCC(N)=O)NC(=O)[C@H](Cc1c[nH]cn1)NC(=O)[C@H](C)NC(=O)[C@H](CC(C)C)NC(=O)[C@H](CCCNC(=N)N)NC(=O)[C@H](CCC(N)=O)NC(=O)[C@@H](NC(=O)[C@@H](NC(=O)[C@@H]1CSSC[C@H](NC(=O)CN)C(=O)N[C@@H](CCCNC(=N)N)C(=O)N[C@@H]([C@@H](C)O)C(=O)NCC(=O)N[C@@H]([C@@H](C)O)C(=O)N1)[C@@H](C)O)C(C)C)C(=O)N[C@@H](Cc1ccc(O)cc1)C(=O)N[C@@H](CCC(N)=O)C(=O)N[C@@H](Cc1ccccc1)C(=O)N[C@H](C(=O)N[C@@H](CC(=O)O)C(=O)N[C@@H](CCCCN)C(=O)N[C@@H](CC(=O)O)C(=O)N[C@@H](CCCCN)C(=O)N[C@@H](CC(=O)O)C(=O)N[C@@H](CC(N)=O)C(=O)N[C@H](C(=O)N[C@@H](C)C(=O)N1CCC[C@H]1C(=O)N[C@@H](CCCNC(=N)N)C(=O)N[C@@H](CO)C(=O)N[C@@H](CCCCN)C(=O)N[C@H](C(=O)NCC(=O)N1CCC[C@H]1C(=O)N[C@@H](CCC(N)=O)C(=O)NCC(=O)N1C[C@H](O)C[C@H]1C(N)=O)C(C)C)C(C)C)[C@@H](C)O [compound 187] (H-GCRTGTCTVQRLAHQIYQFTDKDKDNVAPRSKVGPQG[Hyp]-NH2; disulfide 2-7; N-terminus assumed)
4,8.500,CC[C@H](C)[C@H](NC(=O)[C@H](CCC(N)=O)NC(=O)[C@H](Cc1c[nH]cn1)NC(=O)[C@H](C)NC(=O)[C@H](CC(C)C)NC(=O)[C@H](CCCNC(=N)N)NC(=O)[C@H](CCC(N)=O)NC(=O)[C@@H](NC(=O)[C@@H](NC(=O)[C@@H]1CSSC[C@H](NC(=O)CN)C(=O)N[C@@H](CCCNC(=N)N)C(=O)N[C@@H]([C@@H](C)O)C(=O)NCC(=O)N[C@@H]([C@@H](C)O)C(=O)N1)[C@@H](C)O)C(C)C)C(=O)N[C@@H](Cc1c[nH]cn1)C(=O)N[C@@H](CCC(N)=O)C(=O)N[C@@H](Cc1ccccc1)C(=O)N[C@H](C(=O)N[C@@H](CC(N)=O)C(=O)N[C@@H](CCCCN)C(=O)N[C@@H](CC(=O)O)C(=O)N[C@@H](CCCCN)C(=O)N[C@@H](CC(=O)O)C(=O)N[C@@H](CC(N)=O)C(=O)N[C@H](C(=O)N[C@@H](C)C(=O)N1CCC[C@H]1C(=O)N[C@@H](CCCNC(=N)N)C(=O)N[C@@H](CO)C(=O)N[C@@H](CCCCN)C(=O)N[C@H](C(=O)N[C@@H](CO)C(=O)N1CCC[C@H]1C(=O)N[C@@H](CCC(N)=O)C(=O)N[C@H](C(=O)N1C[C@H](O)C[C@H]1C(N)=O)[C@@H](C)O)[C@@H](C)CC)C(C)C)[C@@H](C)O [compound 227] (H-GCRTGTCTVQRLAHQIHQFTNKDKDNVAPRSKISPQT[Hyp]-NH2; disulfide 2-7; N-terminus assumed)
5,12.900,CC[C@H](C)[C@H](NC(=O)[C@H](CCC(N)=O)NC(=O)[C@H](Cc1c[nH]cn1)NC(=O)[C@H](C)NC(=O)[C@H](CC(C)C)NC(=O)[C@H](CCCNC(=N)N)NC(=O)[C@H](CCC(N)=O)NC(=O)[C@@H](NC(=O)[C@@H](NC(=O)[C@@H]1CSSC[C@H](NC(=O)CN)C(=O)N[C@@H](CCCNC(=N)N)C(=O)N[C@@H]([C@@H](C)O)C(=O)NCC(=O)N[C@@H]([C@@H](C)O)C(=O)N1)[C@@H](C)O)C(C)C)C(=O)N[C@@H](Cc1ccc(O)cc1)C(=O)N[C@@H](CCC(N)=O)C(=O)N[C@@H](Cc1ccccc1)C(=O)N[C@H](C(=O)N[C@@H](CC(=O)O)C(=O)N[C@@H](CCCCN)C(=O)N[C@@H](CC(=O)O)C(=O)N[C@@H](CCCCN)C(=O)N[C@@H](CC(=O)O)C(=O)N[C@@H](CC(N)=O)C(=O)N[C@H](C(=O)N[C@@H](C)C(=O)N1CCC[C@H]1C(=O)N[C@@H](CCCNC(=N)N)C(=O)N[C@H](C(=O)N[C@@H](CCCCN)C(=O)N[C@H](C(=O)N[C@@H](CO)C(=O)N1CCC[C@H]1C(=O)N[C@@H](CC(N)=O)C(=O)NCC(=O)N[C@@H](Cc1ccc(O)cc1)C(N)=O)[C@@H](C)CC)[C@@H](C)O)C(C)C)[C@@H](C)O [compound 190] (H-GCRTGTCTVQRLAHQIYQFTDKDKDNVAPRTKISPNGY-NH2; disulfide 2-7)
6,8.900,CC[C@H](C)[C@H](NC(=O)[C@H](CCC(N)=O)NC(=O)[C@H](Cc1c[nH]cn1)NC(=O)[C@H](C)NC(=O)[C@H](CC(C)C)NC(=O)[C@H](CCCNC(=N)N)NC(=O)[C@H](CCC(N)=O)NC(=O)[C@@H](NC(=O)[C@@H](NC(=O)[C@@H]1CSSC[C@H](NC(=O)CN)C(=O)N[C@@H](CCCNC(=N)N)C(=O)N[C@@H]([C@@H](C)O)C(=O)NCC(=O)N[C@@H]([C@@H](C)O)C(=O)N1)[C@@H](C)O)C(C)C)C(=O)N[C@@H](Cc1ccc(O)cc1)C(=O)N[C@@H](CCC(N)=O)C(=O)N[C@@H](Cc1ccccc1)C(=O)N[C@H](C(=O)N[C@@H](CC(=O)O)C(=O)N[C@@H](CCCCN)C(=O)N[C@@H](CC(=O)O)C(=O)N[C@@H](CCCCN)C(=O)N[C@@H](CC(=O)O)C(=O)N[C@@H](CC(N)=O)C(=O)N[C@H](C(=O)N[C@@H](C)C(=O)N1CCC[C@H]1C(=O)N[C@@H](CCCNC(=N)N)C(=O)N[C@H](C(=O)N[C@@H](CC(N)=O)C(=O)N[C@H](C(=O)N[C@@H](CO)C(=O)N1CCC[C@H]1C(=O)N[C@@H](CCC(N)=O)C(=O)NCC(=O)N[C@@H](Cc1ccc(O)cc1)C(N)=O)[C@@H](C)CC)[C@@H](C)O)C(C)C)[C@@H](C)O [compound 199] (H-GCRTGTCTVQRLAHQIYQFTDKDKDNVAPRTNISPQGY-NH2; disulfide 2-7; N-terminus assumed)
7,13.900,CC[C@H](C)[C@H](NC(=O)[C@H](CCC(N)=O)NC(=O)[C@H](Cc1c[nH]cn1)NC(=O)[C@H](C)NC(=O)[C@H](CC(C)C)NC(=O)[C@H](CCCNC(=N)N)NC(=O)[C@H](CCC(N)=O)NC(=O)[C@@H](NC(=O)[C@@H](NC(=O)[C@@H]1CSSC[C@H](NC(=O)CN)C(=O)N[C@@H](CCCNC(=N)N)C(=O)N[C@@H]([C@@H](C)O)C(=O)NCC(=O)N[C@@H]([C@@H](C)O)C(=O)N1)[C@@H](C)O)C(C)C)C(=O)N[C@@H](Cc1ccc(O)cc1)C(=O)N[C@@H](CCC(N)=O)C(=O)N[C@@H](Cc1ccccc1)C(=O)N[C@H](C(=O)N[C@@H](CC(=O)O)C(=O)N[C@@H](CCCCN)C(=O)N[C@@H](CC(=O)O)C(=O)N[C@@H](CCCCN)C(=O)N[C@@H](CC(=O)O)C(=O)N[C@@H](CC(N)=O)C(=O)N[C@H](C(=O)N[C@@H](C)C(=O)N1CCC[C@H]1C(=O)N[C@@H](CCCNC(=N)N)C(=O)N[C@@H](CO)C(=O)N[C@@H](CC(N)=O)C(=O)N[C@H](C(=O)N[C@@H](CO)C(=O)N1CCC[C@H]1C(=O)N[C@@H](CC(N)=O)C(=O)NCC(=O)N[C@@H](Cc1ccc(O)cc1)C(N)=O)C(C)C)C(C)C)[C@@H](C)O [compound 172] (H-GCRTGTCTVQRLAHQIYQFTDKDKDNVAPRSNVSPNGY-NH2; disulfide 2-7; N-terminus assumed)

# — patent publication US12139520B2 (priority 2020, dated 2024)
